ChEMBL document CHEMBL3507680, “University of Dundee, Gates Library screen for HepG2 cell viability”

Test: Human HepG2 cell viability assay in 384 well format
Assay type: toxicity, cell-based
Set-up: dose 125 nL, time 70.5 hour; concentration not given beside the values
Conditions: HepG2 cells, read-out: Inhibition
Molecule `Cc1cc(CN(C)CC2CCCN(CCc3ccc(Cl)cc3)C2)[nH]n1` (stereo not given) has a cytotoxicity at 70.5 h of -4.86%. Molecule `CCOCCN1CCN(CCCc2nnnn2-c2ccccc2)CC1` has a cytotoxicity at 70.5 h of -5.57%. For `CS(=O)(=O)NCc1nnc2n1CCN(Cc1ccc(F)cc1)C2`, the cytotoxicity at 70.5 h was -3.88%. In the case of `COc1cccc(C(C)N2CCN(S(=O)(=O)CCCF)CC2)c1` (stereo not given), the cytotoxicity at 70.5 h is reported as 34.9%. For `Cc1nc2c(c(=O)n1C)CCN(C(=O)CCc1ccccn1)CC2`, the cytotoxicity at 70.5 h was -5.46%. For `Cc1csc(N2CCN(Cc3cnc4c(c3)c(C)nn4C)CC2)n1`, the cytotoxicity at 70.5 h was -24.9%. Work on `N#Cc1cccc(CN2CCN(Cc3cscn3)CC2)c1` yielded a cytotoxicity at 70.5 h of -10%. With `CN(C)c1nc2c(c(N3CCC4(CC3)CNC(=O)C4)n1)CCCC2` the cytotoxicity at 70.5 h was -3.91%. `COCC1CN(S(=O)(=O)N(C)C)Cc2ncn(CC3CC3)c21` (stereo not given) showed a cytotoxicity at 70.5 h of 2.72%. With `Cc1ccc(CC(=O)N2CCCC(c3nccs3)C2)cn1` (stereo not given) the cytotoxicity at 70.5 h was -4.34%. In the case of `CC(=O)Nn1ccc2c(nnc3c(-c4ccc(F)cc4)cnn32)c1=O`, the cytotoxicity at 70.5 h is reported as -20.1%. For `COCC(=O)N1CCC2(CC(=O)N(c3cccc(F)c3)C2)C1` (stereo not given), the cytotoxicity at 70.5 h was -9.01%. In the case of `COCCC1(CO)CCCN(C(=O)c2cccnc2OC)C1` (stereo not given), the cytotoxicity at 70.5 h is reported as -5.91%. `CCCOCC(=O)N1CCCC(c2nnc(CN3CCCCC3)n2C)C1` (stereo not given) gave a cytotoxicity at 70.5 h of 9.63%. Molecule `Cc1ccc(C(=O)O)c(N2Cc3cnc(C(C)(C)C)nc3C2)n1` has a cytotoxicity at 70.5 h of -14.8%. Molecule `COc1cc(C)sc1C(=O)N1CCCC(n2nc(C)nc2C)C1` (stereo not given) has a cytotoxicity at 70.5 h of 21.7%. For `COCC(C)NC(=O)c1sccc1-n1cnnn1` (stereo not given), the cytotoxicity at 70.5 h was -2.58%. Molecule `CC(C)c1nc(C2CCCN(C(=O)c3ccc4[nH]cnc4c3)C2)no1` (stereo not given) has a cytotoxicity at 70.5 h of -18.2%. `CC(C)c1nc2c(n1C)CCN(CCCc1nc3ccccc3o1)C2` gave a cytotoxicity at 70.5 h of -0.617%. For `O=C(NCC(CO)Cc1cccc(OC(F)(F)F)c1)c1cnccn1` (stereo not given), the cytotoxicity at 70.5 h was 19.2%. Work on `CN(C)Cc1nnc(C2CCCN(c3nc(C(N)=O)cs3)C2)n1C` (stereo not given) yielded a cytotoxicity at 70.5 h of -7.8%. Molecule `Cc1ccnn1CCC(=O)N1CCOC(CCc2ccccc2)C1` (stereo not given) has a cytotoxicity at 70.5 h of -7.51%. In the case of `Cn1ccc(C(=O)N2CCC[C@]3(C[C@@H](OCc4ccccn4)CO3)C2)n1`, the cytotoxicity at 70.5 h is reported as -12.2%. `CCc1nc2c(s1)C(N(C)C(=O)c1csnn1)CCC2` (stereo not given) gave a cytotoxicity at 70.5 h of -5.63%. In the case of `CN(C)CC(=O)N1CCC2(CC1)COCCN(Cc1ccncc1)C2`, the cytotoxicity at 70.5 h is reported as -8.72%. Work on `O=C(CC1CC1)N[C@@H]1CN(Cc2ccco2)C[C@@H]2CCCO[C@@H]21` yielded a cytotoxicity at 70.5 h of -2.26%. Molecule `Cn1c(C2CC2)nc2c1CCN(CC(=O)Nc1ccncc1)C2` has a cytotoxicity at 70.5 h of 4.27%. Work on `C/C(=C\c1ccco1)CN(C)C(C)c1ccccn1` (stereo not given) yielded a cytotoxicity at 70.5 h of 16.1%. Molecule `CSc1ncccc1C(=O)NCc1ccc(N(C)C)cc1` has a cytotoxicity at 70.5 h of 40.2%. With `COc1ccccc1OCC(=O)NS(=O)(=O)c1cc(F)ccc1F` the cytotoxicity at 70.5 h was -4.75%. Molecule `O=C(Nc1ccc(F)cc1)N1CCC2(CCC(=O)N(C3CC3)C2)CC1` has a cytotoxicity at 70.5 h of -11.6%. In the case of `Cc1csc(N(C)C(=O)C2CC(=O)N(c3ccccc3Cl)C2)n1` (stereo not given), the cytotoxicity at 70.5 h is reported as 4.48%. In the case of `O=C(C1CCC1)N1CC[C@H](O)[C@@H]1Cc1cccnc1`, the cytotoxicity at 70.5 h is reported as 1.53%. With `CC(C)N(C)C(=O)C1CSCN1S(=O)(=O)c1ccccc1F` (stereo not given) the cytotoxicity at 70.5 h was -9.21%. For `Cc1cnc(C(=O)N2CCCC(c3c(C)c(=O)nc4n3CCC4)C2)cn1` (stereo not given), the cytotoxicity at 70.5 h was -7.55%. In the case of `COC(=O)c1ccc(CNCc2cn(C)nc2C)cc1`, the cytotoxicity at 70.5 h is reported as 1.28%. `O=C(NCC1CCCOC1)c1ccc(-c2cccs2)[nH]c1=O` (stereo not given) gave a cytotoxicity at 70.5 h of 4.28%. In the case of `Cc1ncccc1-c1cc2cccnc2n1CCCNC(=O)C(C)(C)C`, the cytotoxicity at 70.5 h is reported as 2.29%. With `Cc1ccc(N2CCCN(C(=O)c3cccc4c3ccn4C)CC2)nn1` the cytotoxicity at 70.5 h was -7.32%. With `CCCn1[nH]c(CNc2cccc(Cl)c2)nc1=O` the cytotoxicity at 70.5 h was -15.4%. In the case of `Cc1cc(C)n(CC2CCCN2C(=O)c2ccc(C(N)=O)cn2)n1` (stereo not given), the cytotoxicity at 70.5 h is reported as -1.95%. With `COc1cccc(-c2cc(C(=O)Nc3nc[nH]n3)[nH]n2)c1` the cytotoxicity at 70.5 h was -11.1%. With `COc1ccc(NC(=O)N2CCCC2c2ccco2)c(OC)c1` (stereo not given) the cytotoxicity at 70.5 h was 10.8%. `O=C(NCC1CCCCC1)N1C[C@@H]2C[C@H]1CN2` gave a cytotoxicity at 70.5 h of -7.03%. Molecule `CC(C)(C)c1n[nH]c(C2CN(C(=O)CCCn3cccn3)CCO2)n1` (stereo not given) has a cytotoxicity at 70.5 h of 0.387%. `CCn1c(CN2CCCC(O)(c3ccc(F)cc3)CC2)cnc1SC` (stereo not given) showed a cytotoxicity at 70.5 h of -5.35%. With `CN1C(=O)CC(c2cnn(C)c2)C12CCN(C(=O)c1ccnnc1)CC2` (stereo not given) the cytotoxicity at 70.5 h was -9.97%. `O=C(O)c1csc(S(=O)(=O)N2CCCc3cc(OC(F)F)ccc32)c1` showed a cytotoxicity at 70.5 h of -10.7%. Molecule `O=C1CO[C@H]2CN(Cc3ccc(F)c(F)c3)C[C@H]2N1` has a cytotoxicity at 70.5 h of -12.7%. Work on `CC[C@@]1(O)CCN(c2ncc(Cl)cc2F)C[C@H]1O` yielded a cytotoxicity at 70.5 h of -13.4%. Work on `Cc1ccccc1C1(C(=O)NCCN2CCCC(C)C2)CCOCC1` (stereo not given) yielded a cytotoxicity at 70.5 h of 32.7%. Molecule `COCCC1CN(c2nc(-c3ccccc3)nc3c2CCNC3)CCO1` (stereo not given) has a cytotoxicity at 70.5 h of 25.4%. `Cc1nnc(N2CCC(NS(C)(=O)=O)CC2)c(C#N)c1C` showed a cytotoxicity at 70.5 h of -5.64%. For `Cc1cnc(N2CCC3(CC2)CC(NS(C)(=O)=O)CO3)nc1` (stereo not given), the cytotoxicity at 70.5 h was 1.23%. With `CC(C)c1ncc2c(n1)CN(Cc1nc(-c3ccoc3)no1)CC2` the cytotoxicity at 70.5 h was -16.7%. In the case of `CCC(O)CN1CCN(C(=O)c2ccnc(N(C)C)c2)CC1` (stereo not given), the cytotoxicity at 70.5 h is reported as -11.3%. For `CCc1ccc(C(=O)N(c2cccnc2)C(C)C)cc1S(C)(=O)=O`, the cytotoxicity at 70.5 h was -8%. `C=C(C)COc1ccccc1C(=O)N1CCC2(CC1)CN(C)CCN2C` gave a cytotoxicity at 70.5 h of -11.5%. In the case of `O=C1NCCN1C1CCN(c2ccnc(-c3ccccc3)n2)CC1`, the cytotoxicity at 70.5 h is reported as -7.99%. In the case of `CCCn1ncc(CN2C[C@@H]3CCCN3C[C@@H]2Cc2ccccc2)c1C`, the cytotoxicity at 70.5 h is reported as -2.55%. For `Cc1nn(C)cc1S(=O)(=O)N[C@@H]1CC[C@@H](n2ccnc2C)[C@@H]1O`, the cytotoxicity at 70.5 h was 17.7%. In the case of `CC(C)c1cc(C(=O)N2CCCN(CCCc3ccccc3)CC2)[nH]n1`, the cytotoxicity at 70.5 h is reported as -8.74%. Molecule `CC(=O)N1CC(Cc2nccc3ccn(C)c23)C1` has a cytotoxicity at 70.5 h of -5.15%. For `CC(C)c1nccn1CCC(=O)N1CCCC1c1cccn1C` (stereo not given), the cytotoxicity at 70.5 h was -3.96%. `Cc1cnn(C2CN(Cc3nc(C(C)(C)C)no3)C2)c1` gave a cytotoxicity at 70.5 h of 20.7%. Work on `CN(C)C(=O)CS(=O)(=O)Cc1cc(Cl)c2c(c1)OCCCO2` yielded a cytotoxicity at 70.5 h of 6.99%. With `CC(=O)N1CCCC(c2cccc(-n3ccnc3)n2)C1` (stereo not given) the cytotoxicity at 70.5 h was -7.9%. In the case of `COc1ccc(CCNC(=O)CN2CCOCS2(=O)=O)cc1`, the cytotoxicity at 70.5 h is reported as -8.13%. Molecule `CNC(=O)c1sc2ncccc2c1C1CCN(C(=O)CCOC)C1` (stereo not given) has a cytotoxicity at 70.5 h of -8.16%. In the case of `O=S(=O)(CCNCc1ccc(Cl)cc1)N1CCOCC1`, the cytotoxicity at 70.5 h is reported as 15.5%. `CCc1ocnc1C(=O)N1CCN(c2ccc3ccccc3c2)CC1` showed a cytotoxicity at 70.5 h of 4.76%. `CCOc1ccc(-c2nc(CN(C)Cc3c(C)noc3C)cs2)cc1` gave a cytotoxicity at 70.5 h of 11.3%. With `CCOc1nc2cnccc2n(CC(=O)NCc2ccco2)c1=O` the cytotoxicity at 70.5 h was -10.1%. For `Cc1nnc([C@@H]2CC[C@@H]3[C@@H](CCN3C3CCC3)O2)o1`, the cytotoxicity at 70.5 h was -4.45%. For `CC(NC(=O)Cc1cccs1)(C(N)=O)c1cccc(Cl)c1` (stereo not given), the cytotoxicity at 70.5 h was 1.57%. Molecule `COCC1CN(C(=O)c2cccn2C)Cc2ncnn2C1` (stereo not given) has a cytotoxicity at 70.5 h of -3.03%. With `COC(=O)[C@H]1C[C@@H](O)CCN1S(=O)(=O)c1cc(Cl)ccc1OC` the cytotoxicity at 70.5 h was -11.2%. `CC(NC(=O)N1CCS(=O)(=O)CC1)c1c(F)cccc1Cl` (stereo not given) gave a cytotoxicity at 70.5 h of -4.16%. For `CCCC(O)CN1CC(C)(C)CN(C(=O)c2ccc(SC)cc2)CC1=O` (stereo not given), the cytotoxicity at 70.5 h was -8.02%. `Cc1nc(CC(C)C)cc(C(=O)N2C[C@@H](CN(C)C)[C@@H](CO)C2)n1` showed a cytotoxicity at 70.5 h of 6.25%.
